≈ marks a conversion by molar mass, not a printed value. Entries after “also recorded” stand apart in the source; their conditions may differ.
What was measured:
[1] = as disclosed in WO2015073779; cited from earlier work
[2] = Solubility in SGF (suspension rotated, filtrate concentration by HPLC); type: physicochemical; details: for Solubility in SGF: SGF (simulated gastric fluids); for solubility in SGF compared with Form A in WO2015073779: SGF at 1 h, 4 h and 24 h
Protocol: Certain amount of Form CS1 in the present disclosure and Form A in WO2015073779 were weighted into vials and suspended in SGF (Simulated Gastric Fluids). The systems were rotated on the rotator at a rate of 25 r/min. After equilibrated for 1 h, 4 h and 24 h, the suspension was separated through 0.45 μm PTFE centrifugal filter and the filtrate was collected. The concentration of the filtrates was measured by HPLC.
(§1) Certain amount of Form CS8 in the present disclosure and Form A in WO2015073779 was weighted into vials and then suspended in SGF (Simulated gastric fluids) and water. The systems were rotated on the rotator at a rate of 25 r/min. After equilibrated for 1 h, 4 h and 24 h, the suspension was separated through 0.45 μm PTFE centrifugal filter and the filtrate was collected. The concentration of the filtrates was measured by HPLC.

[3] = Stability comparison experiment: slurry in water at room temperature, about 40 days; type: physicochemical
Protocol: Stability comparison experiment: about 4 mg of Form CS2 and Form A in WO2015073779 was weighted into a 1.5 mL glass vial and 1.0 mL of water was added into the vial. The solid form of the initial sample was tested. After stirring at a rate of 500 r/min at room temperature for about 40 days, the solid form of the sample was tested again. The XRPD pattern overlay is depicted in FIG. 13.

[4] = Storage stability of the crystalline form (XRPD before and after storage); type: physicochemical; details: for Solid Form after storage: XRPD
Protocol: Form CS1 in the present disclosure was stored under 25° C./60% RH and 40° C./75% RH for 1 month. The XRPD pattern was collected before and after storage, and the XRPD pattern overlay is depicted in FIG. 10.
Accelerated experiment: Form CS2 was stored under 25° C./60% RH, 40° C./75% RH and 60° C./75% RH for 1 month. The XRPD pattern was collected before and after storage, and the overlay is depicted in FIG. 11.
Form CS8 of the present disclosure was stored under 25° C./60% RH, 40° C./75% RH and 60° C./75% RH for 20 days.

[5] = Mechanical stability experiment: manual grinding for 5 minutes in a mortar; type: physicochemical; details: XRPD
Protocol: Mechanical stability experiment: Form CS2 was manually ground for 5 minutes in a mortar. The XRPD pattern collected before and after grinding is depicted in FIG. 12.

[6] = Hygroscopicity by dynamic vapor sorption (DVS); type: physicochemical
Protocol: Dynamic Vapor Sorption (DVS) was measured via an SMS (Surface Measurement Systems Ltd.) intrinsic DVS instrument. Its control software is DVS-Intrinsic control software, and its analysis software is DVS-Intrinsic Analysis software. Typical Parameters for DVS test are as follows: • Temperature: 25° C. • Gas and flow rate: N2, 200 mL/min • dm/dt: 0.002%/min • RH range: 0% RH to 95% RH
Dynamic vapor sorption (DVS) was applied to test hygroscopicity of Form CS2 with 10 mg of sample.
Dynamic vapor sorption (DVS) was applied to test hygroscopicity of Form CS8 with 10 mg of sample and the DVS curve is depicted in FIG. 14. The weight gain of Form CS8 under 80% RH is 0.06%, which means Form CS8 is non hygroscopic or almost non hygroscopic.
Description and definition of hygroscopicity in the general principle 9103 of Chinese Pharmacopoeia: • deliquescent: Sufficient water is absorbed to form a liquid; • very hygroscopic: Increase in mass is equal to or greater than 15 percent; • hygroscopic: Increase in mass is less than 15 percent and equal to or greater than 2 percent; • slightly hygroscopic: Increase in mass is less than 2 percent and equal to or greater than 0.2 percent. • non hygroscopic or almost non hygroscopic: Increase in mass is less than 0.2%.

[7] = Pressure stability: tableting under 3 KN, 7 KN and 14 KN, XRPD before and after; type: physicochemical; details: 7 KN and 14 KN pressure
Excerpt: Form CS2 was compressed using an ENERPAC manual tablet press under 3 KN, 7 KN and 14 KN pressure with φ6 mm round tooling (to ensure isotropy of the tablet). XRPD pattern overlay depicted in FIG. 15 was collected by a […] Panalytical Empyrean X-ray diffractometer before and after tableting.

[8] = Solubility in water (suspension rotated, filtrate concentration by HPLC); type: physicochemical
Protocol: as §1

[9] = 25° C./60% RH, 40° C./75% RH and 60° C./75% RH

| Structure (SMILES) | Solubility in SGF ([2]; equilibrated 1 h) | Solubility in SGF ([2]; equilibrated 4 h) | Solubility in SGF ([2]; equilibrated 24 h) | Solid Form after storage ([4]; 25° C./60% RH, 1 month) | time the form keeps stable [4, 9] | Solid Form after storage ([4]; 40° C./75% RH, 1 month) | solubility in SGF compared with Form A in WO2015073779 [2] | further results |
| --- | --- | --- | --- | --- | --- | --- | --- | --- |
| O=C(O)CNC(=O)c1ncc(-c2cccc(Cl)c2)cc1O [Form B, {[5-(3-chlorophenyl)-3-hydroxypyridine-2-carbonyl]amino} acetic acid] |  |  |  |  |  |  |  | conversion in slurry at high temperature [1]: may convert to Form A |
| O=C(O)CNC(=O)c1ncc(-c2cccc(Cl)c2)cc1O [Form A in WO2015073779, {[5-(3-chlorophenyl)-3-hydroxypyridine-2-carbonyl]amino} acetic acid, reference compound] | 8.5 µg/mL (≈ 27.7 µM) | 8.6 µg/mL (≈ 28 µM) | 3.8 µg/mL (≈ 12.4 µM) |  |  |  |  | solid form after slurry in water ([3]; water, 500 r/min, room temperature, XRPD): almost completely converted to Form CS2 |
| O=C(O)CNC(=O)c1ncc(-c2cccc(Cl)c2)cc1O [Form CS2, {[5-(3-chlorophenyl)-3-hydroxypyridine-2-carbonyl]amino} acetic acid] |  |  |  | Form CS2, no form change | at least 1 month | Form CS2, no form change |  | Solid Form after storage ([4]; 25° C./60% RH, 20 days): Form CS8, no form change; Solid Form after storage ([4]; 40° C./75% RH, 20 days): Form CS8, no form change; Solid Form after storage ([4]; 60° C./75% RH, 1 month): Form CS2, no form change; Solid Form after storage ([4]; 60° C./75% RH, 20 days): Form CS8, no form change; stability in water compared with Form A in WO2015073779 ([3]; slurry in water): more stable; crystal structure after manual grinding [5]: doesn't change; weight gain from 40% RH to 80% RH ([6]; DVS, 25° C., 10 mg of sample): 0.11%; hygroscopicity (in words) ([6]; from weight gain 40% RH to 80% RH): low hygroscopic; form change after tableting [7]: no form change; also recorded: stable |
| O=C(O)CNC(=O)c1ncc(-c2cccc(Cl)c2)cc1O [Form CS8, {[5-(3-chlorophenyl)-3-hydroxypyridine-2-carbonyl]amino} acetic acid] | 20 µg/mL (≈ 65.2 µM) | 22 µg/mL (≈ 71.7 µM) | 33 µg/mL (≈ 108 µM) |  | at least 20 days |  | higher | solubility in water compared with Form A in WO2015073779 [8]: higher; weight gain at 90% RH ([6]; DVS, 25° C.): 0.08%; weight gain at 80% RH ([6]; DVS, 25° C., 10 mg of sample): 0.06%; hygroscopicity class (Chinese Pharmacopoeia general principle 9103) ([6]; from weight gain under 80% RH): non hygroscopic or almost non hygroscopic (Increase in mass is less than 0.2%) |
| O=C(O)CNC(=O)c1ncc(-c2cccc(Cl)c2)cc1O [Form CS1, {[5-(3-chlorophenyl)-3-hydroxypyridine-2-carbonyl]amino} acetic acid] | 23 µg/mL (≈ 75 µM) | 26 µg/mL (≈ 84.8 µM) | 19 µg/mL (≈ 61.9 µM) | Form CS1, no form change |  | Form CS1, no form change | higher | time the form keeps stable ([4]; 25° C./60% RH and 40° C./75% RH): at least 1 month |
